Source: patent US4347319A, “Microbiological epoxidation process” (priority 1980, dated 1982)
Entries after “also recorded” stand apart in the source; their conditions may differ.

Columns and labels:
Assay type in all cases: biochemical
[1] = system: P(40) particulate fraction of Methylosinus sp. (CRL-15, NRRL B-11,202); experiment: Effect of inhibitors on propylene epoxidation and methane hydroxylation; conditions: inhibitor 10^-3 M; P(40) fraction
Protocol: (§1) The oxidation of methane and propylene by particulate [(P)40 and (P)80] fractions and soluble [S(80)] fraction was measured at 30° C. by estimating the production of methanol and propylene oxide, respectively. The reaction mixtures contained in […]: 150 mM potassium phosphate buffer, pH 7.0 containing 5 mM MgCl2 b, 0.6 ml; 10μ moles NADH, and cellular fraction.
Reaction mixtures were contained in 10 ml vials at 4° C. Vials were sealed with rubber caps. The gaseous phase in the vials was removed using vacuum and then was replaced with a gas mixture of methane or propylene and oxygen at a 1:1, v/v ratio. Oxidation of other gaseous n-alkanes and n-alkanes was examined as described above. For liquid substrates, 10 μl of substrate was used directly. Vials were then incubated at 30° C. on a rotary shaker at 200 RPM.
It has been reported that the oxidation of methane by cell suspensions of methane-utilizing bacteria was inhibited by various metal-binding or metal-chelating agents (Patel et al., J. Bacteriol. 126: 1017-1019 (1976)). […] (CRL-15, NRRL B-11,202) was examined.

[2] = system: purified secondary alcohol dehydrogenase (SADH) from Pseudomonas sp. ATCC 21439; experiment: Effect of metal-chelating agents and thio reagents on purified SADH; conditions: final concentration of 1 mM; measured spectrofluorometrically
Protocol: Secondary alcohol dehydrogenase (SADH) from an obligate methanol utilizer, Pseudomonas sp. ATCC 21439 was purified as follows. […] 0.05 M sodium phosphate buffer, pH 7.0 with 0.5 mM dithiothretol (buffer A) and were disrupted sonically (5×1 min.). The crude extract was separated by centrifugation. The crude extract was heat-treated at 50° C. in a water bath for 10 minutes. The resulting precipitate was removed by centrifugation. To the supernatant solution, 25 ml of protamine sulfate solution (2% solution in 0.1 M Tris base) was added dropwise with continuous stirring. After standing for 30 minutes, the extract was centrifuged. The supernatant solution was fractionated with solid ammonium sulfate. […] This DEAE-cellulose eluate was concentrated by ammonium sulfate fractionation. Material precipitating between 30 and 50% ammonium sulfate saturation was collected by centrifugation and dialyzed overnight against A. This fraction was further washed and filtered through an Amicon unit with XM 50 membrane. The concentrated fraction (6 ml) inside the Amicon unit was applied to an Affi-Gel Blue column (0.8 cm×18 cm) which had been equilibrated with buffer A for affinity chromatography. The column was washed overnight with buffer A (0.18 ml./min.) and then was eluted with buffer A containing 5 mM NAD. Each 1 ml. fraction was collected.
The purified secondary alcohol dehydrogenase enzyme (SADH) may be used directly for converting C3 -C6 secondary alcohols to the corresponding methyl ketones by the procedures described above; however, a source of NAD^+ must be added to the reaction medium. One can determine the NAD-linked secondary alcohol dehydrogenase activity with a fluorescence spectrophotometer (Perkin Elmer, Model MPF 44A) by following the formation of reduced NAD (Ex 340 nm, Em 460 nm). The assay system (3 ml.) will typically contain: sodium phosphate buffer pH 7.0, 150 μmol; NAD 1.0 μmol; a given amount of enzyme preparation; and 20 μmol secondary alcohol. The reaction is started by the addition of secondary alcohol. One unit of SADH enzyme activity represents the reduction of one nmole NAD per minute.
The effect of metal-chelating agents and chioreagents on the activity of the purified SADH enzyme were studied. […] The possibility of ethanol or n-propanol as an inhibitor was studied.

[3] = system: purified secondary alcohol dehydrogenase from Pichia sp. NRRL Y-11,328; experiment: Inhibitors of purified yeast SADH; conditions: primary alcohols tested at 10^-3 M
Protocol: Large scale cultures of Pichia sp. NRRL Y-11,328 were grown with aeration at 30° C. in a 14-liter New Brunswick f fermentor in a mineral salt medium containing methanol (0.4%, v/v) as the sole carbon source. The cells (200 g., wet weight) were suspended in […] sodium phosphate buffer, pH 7.0, containing 1 mM dithiothreitol (buffer A), and crude extracts were prepared as described previously. To the crude extracts, 18 ml. of protamine sulfate solution [2% solution in 0.1 M tris (hydroxymethyl) aminomethane (tris) base] was added dropwise with continuous stirring. After standing for 30 min., the extracts were centrifuged at 20,000×g. for 60 min. The supernatant solution was fractionated with solid ammonium sulfate. Extracts were brought to 50% of saturation with respect to ammonium sulfate by addition of 313 g. of the salt per liter of extract. Precipitated proteins was removed by centrifugation, and 137 g. of ammonium sulfate was added per liter of the supernatant liquid to bring it to 70% of saturation. Material precipitating between 50 and 70% of saturation was collected by centrifugation and dissolved in buffer A. This preparation was dialyzed overnight against buffer A, and the dialyzed material was applied to a DEAE-cellulose column (5×40 cm) that had been equilibrated with buffer A. The sample was washed with 200 ml. of buffer A and eluted with 2 liters of buffer A that contained NaCl in a linear gradient running from a concentration of 0 to 0.5 M. Fractions of 15 ml. were collected. Fractions containing secondary alcohol dehydrogenase activity were pooled and were termed DEAE-cellulose eluate. The DEAE-cellulose eluate was concentrated by ammonium sulfate fractionation.
Secondary alcohol dehydrogenase activity was measured spectrophotometrically at 340 nm with a NAD^+ as an electron acceptor. The reaction mixture, in a total 3.0 ml., contained 50 mM phosphate buffer, pH 8,0, 5 μ moles NAD^+, crude extracts, and substrate. The reactions were started by addition of 100 µl of 0.1 M substrate and the rate of NAD^+ reduction was measured. Protein concentration was determined by the method of Lowry et al.
Various primary alcohols not oxidized by secondary alcohol dehydrogenase were tested as potential inhibitors of enzyme activity.

[4] = system: cell-free particulate fractions derived from the methylotrophic microorganisms; experiment: Inhibition of conversion of C3 -C6 n-alkanes to sec. alcohols; conditions: oxygen and NADH present
Excerpt: The conditions for preparing the cell suspensions or the cell-free particulate fractions from methane-grown methylotroph microorganisms is the same as described above.

[5] = system: P(40) particulate fraction of Methylosinus sp. (CRL-15, NRRL B-11,202); experiment: Effect of metals on propylene epoxidation and methane hydroxylation; conditions: metal 10^-3 M, P(40) fraction; for Methane-Oxidizing Activity: control 4.0; for Propylene-Oxidizing Activity: control […]
Protocol: as §1
Reaction mixtures were contained in 10 ml vials at 4° C. Vials were sealed with rubber caps. The gaseous phase in the vials was removed using vacuum and then was replaced with a gas mixture of methane or propylene and oxygen at a 1:1, v/v ratio. Oxidation of other gaseous n-alkanes and n-alkanes was examined as described above. For liquid substrates, 10 μl of substrate was used directly.
Since the methane mono-oxygenase from methane-utlizing bacteria is a copper or iron-containing protein (Tonge et al., J. Biochem., 161: 333-344 (1977)), we have examined the effect of copper and iron salts on the oxidation of methane and propylene by the P(40) particulate fraction of Methylosinus sp. (CRL-15, NRRL B-11,202). The rate of hydroxylation of methane to methanol and epoxidation of propylene to propylene oxide was increased twofold in the presence of added copper salts (Table XII).

[6] = system: purified secondary alcohol dehydrogenase from Pichia sp. NRRL Y-11,328; experiment: Substrate specificity, electron acceptor and stoichiometry of purified yeast SADH
[7] = system: cell-free soluble extracts of C1 -utilizing microbes (secondary alcohol dehydrogenase); experiment: Cofactor requirement of cell-free SADH systems
Protocol: Catalytic activity was also assayed by fluorescence spectrophotometry.

Compound: c1cnc2c(c1)ccc1cccnc12 [1,10-Phenanthroline]
- % Inhibition, Methane-Hydroxylating Activity [1]: 90%
- % Inhibition, Propylene-Epoxidizing Activity [1]: 93%
- % inhibition of SADH activity [2]: 95%
- inhibition of secondary alcohol dehydrogenase activity [3]: strongly inhibited
- inhibition of conversion of n-alkanes to sec. alcohols [4]: inhibited

Compound: Oc1cccc2cccnc12 [8-Hydroxyquinoline]
- % Inhibition, Methane-Hydroxylating Activity [1]: 80%
- % Inhibition, Propylene-Epoxidizing Activity [1]: 75%
- inhibition of conversion of n-alkanes to sec. alcohols [4]: inhibited

Compound: O=S(=O)([O-])[O-].[Cu+2] [Cupric Sulfate]
- Methane-Oxidizing Activity [5]: 7.1 μmoles/hr/mg protein
- Propylene-Oxidizing Activity [5]: 9.0 μmoles/hr/mg protein
- inhibition of secondary alcohol dehydrogenase activity [3]: inhibited

Compound: [Cl][Cu] [Cuprous Chloride]
- Methane-Oxidizing Activity [5]: 7.2 μmoles/hr/mg protein
- Propylene-Oxidizing Activity [5]: 9.2 μmoles/hr/mg protein

Compound: Cc1cc2nc3c(=O)[nH]c(=O)nc-3n(C[C@H](O)[C@H](O)[C@H](O)COP(=O)(O)OP(=O)(O)OC[C@H]3O[C@@H](n4cnc5c(N)ncnc54)[C@H](O)[C@@H]3O)c2cc1C [FAD, flavin adenine dinucleotide]
- electron acceptor / carrier [6]: could not act as electron carrier
- effectiveness as cofactor for oxidation of secondary alcohols [7]: not effective

Compound: [Cl][Fe]([Cl])[Cl] [Ferric Chloride]
- Methane-Oxidizing Activity [5]: 4.8 μmoles/hr/mg protein
- Propylene-Oxidizing Activity [5]: 5.8 μmoles/hr/mg protein

Compound: c1c[nH]cn1 [Imidazole]
- inhibition of secondary alcohol dehydrogenase activity [3]: strongly inhibited

Compound: NC(=O)C1=CN([C@@H]2O[C@H](COP(=O)(O)OP(=O)(O)OC[C@H]3O[C@@H](n4cnc5c(N)ncnc54)[C@H](OP(=O)(O)O)[C@@H]3O)[C@@H](O)[C@H]2O)C=CC1 [NAD(P)H]
- effectiveness as cofactor for oxidation of secondary alcohols [7]: not effective

Compound: NC(=O)c1ccc[n+]([C@@H]2O[C@H](COP(=O)([O-])OP(=O)(O)OC[C@H]3O[C@@H](n4cnc5c(N)ncnc54)[C@H](O)[C@@H]3O)[C@@H](O)[C@H]2O)c1 [NAD, Nicotinamide adenine dinucleotide]
- electron acceptor / carrier [6]: required
- effectiveness as cofactor for oxidation of secondary alcohols [7]: requirement; also recorded: required

Compound: NC(=O)c1ccc[n+]([C@@H]2O[C@H](COP(=O)([O-])OP(=O)(O)OC[C@H]3O[C@@H](n4cnc5c(N)ncnc54)[C@H](OP(=O)(O)O)[C@@H]3O)[C@@H](O)[C@H]2O)c1 [NADP]
- electron acceptor / carrier [6]: could not act as electron carrier
- effectiveness as cofactor for oxidation of secondary alcohols [7]: not effective

Compound: NNC(N)=S [Thiosemicarbazide]
- % Inhibition, Methane-Hydroxylating Activity [1]: 100%
- % Inhibition, Propylene-Epoxidizing Activity [1]: 97%
- inhibition of conversion of n-alkanes to sec. alcohols [4]: inhibited

Compound: NC(N)=S [Thiourea]
- % Inhibition, Methane-Hydroxylating Activity [1]: 98%
- % Inhibition, Propylene-Epoxidizing Activity [1]: 98%
- % inhibition of SADH activity [2]: 0%
- inhibition of conversion of n-alkanes to sec. alcohols [4]: inhibited

Compound: O=C1C(Cl)=CC(=Nc2ccc(O)cc2)C=C1Cl [dichlorophenol indophenol]
- electron acceptor / carrier [6]: could not act as electron carrier
- effectiveness as cofactor for oxidation of secondary alcohols [7]: not effective

Compound: N[C@@H](CCC(=O)N[C@@H](CS)C(=O)NCC(=O)O)C(=O)O [glutathione]
- inhibition of secondary alcohol dehydrogenase activity [3]: strongly inhibited
- effectiveness as cofactor for oxidation of secondary alcohols [7]: not effective

Compound: N#C[S][Hg][S]C#N [mercuric thiocyanate]
- inhibition of secondary alcohol dehydrogenase activity [3]: inhibited

Compound: O=C(O)c1cc[c]([Hg+])cc1.[OH-] [p-hydroxymercuribenzoate]
- % inhibition of SADH activity [2]: 100%
- inhibition of secondary alcohol dehydrogenase activity [3]: strongly inhibited

Compound: C[n+]1c2ccccc2nc2ccccc21 [phenazine methosulfate]
- electron acceptor / carrier [6]: could not act as electron carrier
- effectiveness as cofactor for oxidation of secondary alcohols [7]: not effective

Compound: O=[N+]([O-])[O-].[Ag+] [silver nitrate]
- inhibition of secondary alcohol dehydrogenase activity [3]: inhibited

Compound: c1ccc(-c2ccccn2)nc1 [α,α-Bipyridyl]
- % Inhibition, Methane-Hydroxylating Activity [1]: 99%
- % Inhibition, Propylene-Epoxidizing Activity [1]: 98%
- % inhibition of SADH activity [2]: 70%
- inhibition of conversion of n-alkanes to sec. alcohols [4]: inhibited

Compound: Ferrous Sulfate
- Methane-Oxidizing Activity [5]: 4.8 μmoles/hr/mg protein
- Propylene-Oxidizing Activity [5]: 5.9 μmoles/hr/mg protein
